How the values were obtained:
JAK2 = target: T1, JAK2 (Homo sapiens, UniProt O60674); test: Recombinant Human JAK2 Kinase Assay (TRF); type: biochemical; details: JAK2 kinase inhibition, 0.2 μM ATP; read-out: JAK2 Potency
T1 construct: host or cells: baculovirus expression system
Outline: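 Kinase activity of baculovirus-expressed JAK2 is followed on a surface-immobilised biotinylated peptide, with the reaction run for 20 min at room temperature in buffer containing 0.2 μM ATP and manganese. Phosphorylation is read with Eu-N1 PY100 antibody.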

ALK = target: T2, ALK (Homo sapiens, UniProt Q9UM73); test: ALK Kinase Assay (ELISA/TRF, PLC-γ substrate); type: biochemical; details: ALK kinase inhibition, 1 μM ATP; read-out: ALK Potency
T2 construct: host or cells: baculovirus expression system
T2 sequence (Q9UM73 19-1620): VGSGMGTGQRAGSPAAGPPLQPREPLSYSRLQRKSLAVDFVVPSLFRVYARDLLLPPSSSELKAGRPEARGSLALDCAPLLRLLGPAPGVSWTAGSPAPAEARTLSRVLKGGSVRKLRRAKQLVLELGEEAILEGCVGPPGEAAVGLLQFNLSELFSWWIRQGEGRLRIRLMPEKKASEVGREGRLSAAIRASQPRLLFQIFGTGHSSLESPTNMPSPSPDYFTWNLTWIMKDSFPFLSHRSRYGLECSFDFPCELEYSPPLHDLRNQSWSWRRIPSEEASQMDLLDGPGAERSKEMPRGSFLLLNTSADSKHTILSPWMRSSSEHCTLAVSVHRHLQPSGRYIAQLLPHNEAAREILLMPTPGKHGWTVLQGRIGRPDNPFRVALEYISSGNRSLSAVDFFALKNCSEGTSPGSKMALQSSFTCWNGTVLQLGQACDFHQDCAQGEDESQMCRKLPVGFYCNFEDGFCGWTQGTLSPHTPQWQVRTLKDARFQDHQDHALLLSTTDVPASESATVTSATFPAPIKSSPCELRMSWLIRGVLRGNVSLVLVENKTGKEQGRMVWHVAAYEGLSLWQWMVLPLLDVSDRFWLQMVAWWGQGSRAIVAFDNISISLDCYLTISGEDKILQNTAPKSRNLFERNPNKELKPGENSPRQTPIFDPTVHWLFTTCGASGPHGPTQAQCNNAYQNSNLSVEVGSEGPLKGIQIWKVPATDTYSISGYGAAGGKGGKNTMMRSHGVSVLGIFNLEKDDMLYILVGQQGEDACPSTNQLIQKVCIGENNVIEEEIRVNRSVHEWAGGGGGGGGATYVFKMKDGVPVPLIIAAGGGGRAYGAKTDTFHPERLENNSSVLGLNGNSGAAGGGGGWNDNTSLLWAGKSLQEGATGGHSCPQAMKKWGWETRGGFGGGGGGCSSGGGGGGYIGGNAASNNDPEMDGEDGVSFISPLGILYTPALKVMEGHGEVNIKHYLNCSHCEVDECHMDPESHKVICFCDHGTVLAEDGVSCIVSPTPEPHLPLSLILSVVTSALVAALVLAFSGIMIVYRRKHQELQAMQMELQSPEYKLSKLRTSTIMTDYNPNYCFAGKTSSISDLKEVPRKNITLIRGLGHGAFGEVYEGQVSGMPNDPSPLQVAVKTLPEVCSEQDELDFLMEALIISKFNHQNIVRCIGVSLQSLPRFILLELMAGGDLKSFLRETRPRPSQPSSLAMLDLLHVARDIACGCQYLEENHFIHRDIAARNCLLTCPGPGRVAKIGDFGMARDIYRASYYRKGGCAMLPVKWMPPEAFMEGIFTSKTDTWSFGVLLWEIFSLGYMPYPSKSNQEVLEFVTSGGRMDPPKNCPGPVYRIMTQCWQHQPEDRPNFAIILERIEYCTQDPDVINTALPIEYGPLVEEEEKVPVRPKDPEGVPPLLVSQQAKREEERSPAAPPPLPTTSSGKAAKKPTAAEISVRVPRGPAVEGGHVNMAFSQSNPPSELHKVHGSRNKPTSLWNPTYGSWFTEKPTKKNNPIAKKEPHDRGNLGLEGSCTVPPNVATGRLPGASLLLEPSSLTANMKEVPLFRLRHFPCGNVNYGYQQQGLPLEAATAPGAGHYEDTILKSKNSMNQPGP
Outline: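 PLC-γ substrate coated at 10 μg/mL in TBS; reaction started with 30 ng/ml ALK, run 15 min at 37° C. Phosphoproduct detected by TRF with Eu-N1-labeled PT66 anti-phosphotyrosine antibody. IC50 from sigmoidal variable-slope fit of percent inhibition versus log concentration.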

T1 sequence (O60674 whole entry): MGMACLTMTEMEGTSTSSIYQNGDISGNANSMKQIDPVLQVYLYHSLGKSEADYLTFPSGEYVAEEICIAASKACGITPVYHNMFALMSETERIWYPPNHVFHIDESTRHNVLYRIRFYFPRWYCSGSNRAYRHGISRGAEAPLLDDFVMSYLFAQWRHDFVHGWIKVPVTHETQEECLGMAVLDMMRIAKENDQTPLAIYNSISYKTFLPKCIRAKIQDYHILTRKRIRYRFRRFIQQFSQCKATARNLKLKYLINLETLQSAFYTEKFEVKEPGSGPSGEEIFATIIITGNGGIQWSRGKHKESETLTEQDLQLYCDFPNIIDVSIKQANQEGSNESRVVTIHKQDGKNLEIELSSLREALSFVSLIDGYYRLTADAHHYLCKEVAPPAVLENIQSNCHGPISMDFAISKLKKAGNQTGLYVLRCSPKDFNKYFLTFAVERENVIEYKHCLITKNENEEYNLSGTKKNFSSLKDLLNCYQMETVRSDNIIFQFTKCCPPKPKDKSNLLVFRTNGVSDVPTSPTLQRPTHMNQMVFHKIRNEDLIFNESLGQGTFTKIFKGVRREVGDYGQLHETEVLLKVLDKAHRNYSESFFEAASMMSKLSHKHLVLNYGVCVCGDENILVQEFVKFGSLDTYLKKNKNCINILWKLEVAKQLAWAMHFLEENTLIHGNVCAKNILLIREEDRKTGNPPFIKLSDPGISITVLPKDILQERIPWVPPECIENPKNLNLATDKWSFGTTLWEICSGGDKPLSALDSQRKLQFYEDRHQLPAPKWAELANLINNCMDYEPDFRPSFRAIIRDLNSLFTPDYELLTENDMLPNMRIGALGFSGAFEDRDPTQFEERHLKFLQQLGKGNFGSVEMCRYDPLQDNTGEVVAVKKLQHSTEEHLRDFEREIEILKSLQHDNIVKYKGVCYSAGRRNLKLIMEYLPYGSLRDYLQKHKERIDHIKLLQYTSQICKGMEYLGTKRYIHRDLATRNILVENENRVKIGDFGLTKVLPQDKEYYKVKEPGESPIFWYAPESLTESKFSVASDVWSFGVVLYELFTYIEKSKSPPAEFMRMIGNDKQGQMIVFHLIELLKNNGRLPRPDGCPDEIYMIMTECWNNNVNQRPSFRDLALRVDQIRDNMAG

| Structure (SMILES) | IC50 (JAK2) | IC50 (ALK) |
| --- | --- | --- |
| COCCOc1ccccc1-c1ccc2cnc(Nc3ccc(C4CCN(CC(N)=O)CC4)cc3OC)nn12 [Example 1271, 2-[4-(3-Methoxy-4-{7-[2-(2-methoxy-ethoxy)-phenyl]-pyrrolo[2,1-f][1,2,4]triazin-2-ylamino}-phenyl)-piperidin-1-yl]-acetamide] | 1000 to 10000 nM | 100 to 1000 nM |
| COc1cc(N2CCC(N3CCOCC3)CC2)ccc1Nc1ncc2ccc(-n3cccn3)n2n1 [Example 1272, [2-Methoxy-4-(4-morpholin-4-yl-piperidin-1-yl)-phenyl]-(7-pyrazol-1-yl-pyrrolo[2,1-f][1,2,4]triazin-2-yl)-amine] | 1000 to 10000 nM | 100 to 1000 nM |
| COc1ccc(-c2ccc3cnc(Nc4ccc(C5CCN(CC(N)=O)CC5)cc4OC)nn23)c(N(C)S(C)(=O)=O)c1 [Example 1273, 2-[4-(4-{7-[2-(Methanesulfonyl-methyl-amino)-4-methoxy-phenyl]-pyrrolo[2,1-f][1,2,4]triazin-2-ylamino}-3-methoxy-phenyl)-piperidin-1-yl]-acetamide] | 1000 to 10000 nM | < 100 nM |
| COc1cc(C2=CCN(CC(N)=O)CC2)ccc1Nc1ncc2ccc(-c3ccccc3OC)n2n1 [Example 1274, 2-(4-{3-Methoxy-4-[7-(2-methoxy-phenyl)-pyrrolo[2,1-f][1,2,4]triazin-2-ylamino]-phenyl}-3,6-dihydro-2H-pyridin-1-yl)-acetamide] | 100 to 1000 nM | < 100 nM |
| COc1cc(C2CCN(C(C)C(N)=O)CC2)ccc1Nc1ncc2ccc(-c3ccccc3OC)n2n1 (stereo not shown) [Example 1275, 2-(4-{3-Methoxy-4-[7-(2-methoxy-phenyl)-pyrrolo[2,1-f][1,2,4]triazin-2-ylamino]-phenyl}-piperidin-1-yl)-propionamide] | 100 to 1000 nM | < 100 nM |
| COc1cc(C2CCN(CC(=O)N3CCNCC3)CC2)ccc1Nc1ncc2ccc(-c3ccccc3OC)n2n1 [Example 1276, 2-(4-{3-Methoxy-4-[7-(2-methoxy-phenyl)-pyrrolo[2,1-f][1,2,4]triazin-2-ylamino]-phenyl}-piperidin-1-yl)-1-piperazin-1-yl-ethanone] | 100 to 1000 nM | < 100 nM |
| COc1cc(C2CCN(CC(=O)OC(C)(C)C)CC2)ccc1Nc1ncc2ccc(-c3ccccc3OC)n2n1 [Example 1277, (4-{3-Methoxy-4-[7-(2-methoxy-phenyl)-pyrrolo[2,1-f][1,2,4]triazin-2-ylamino]-phenyl}-piperidin-1-yl)-acetic acid tert-butyl ester] | 1000 to 10000 nM | 100 to 1000 nM |
| COc1cc(C2CCN(CC(=O)O)CC2)ccc1Nc1ncc2ccc(-c3ccccc3OC)n2n1 [Example 1278, (4-{3-Methoxy-4-[7-(2-methoxy-phenyl)-pyrrolo[2,1-f][1,2,4]triazin-2-ylamino]-phenyl}-piperidin-1-yl)-acetic acid] | 100 to 1000 nM | < 100 nM |
| COc1cc(C2CCN(CC(=O)NC(CO)CO)CC2)ccc1Nc1ncc2ccc(-c3ccccc3OC)n2n1 [Example 1279, N-(2-Hydroxy-1-hydroxymethyl-ethyl)-2-(4-{3-methoxy-4-[7-(2-methoxy-phenyl)-pyrrolo[2,1-f][1,2,4]triazin-2-ylamino]-phenyl}-piperidin-1-yl)-acetamide] | 100 to 1000 nM | < 100 nM |
| COc1cc(C2CCN(CC(N)=O)CC2)ccc1Nc1ncc2ccc(-c3ccc(C)cc3N(C)S(C)(=O)=O)n2n1 [Example 1280, 2-[4-(4-{7-[2-(Methanesulfonyl-methyl-amino)-4-methyl-phenyl]-pyrrolo[2,1-f][1,2,4]triazin-2-ylamino}-3-methoxy-phenyl)-piperidin-1-yl]-acetamide] | 100 to 1000 nM | < 100 nM |
| COc1cc(C2CCNCC2)ccc1Nc1ncc2ccc(-c3ccc(C)cc3N(C)S(C)(=O)=O)n2n1 [Example 1281, N-{2-[2-(2-Methoxy-4-piperidin-4-yl-phenylamino)-pyrrolo[2,1-f][1,2,4]triazin-7-yl]-5-methyl-phenyl}-N-methyl-methanesulfonamide] | 100 to 1000 nM | < 100 nM |

— patent US8471005B2 (Cephalon, Inc., priority 2008, dated 2013)
